SMILES strings stand for the structures.

The values below come from patent US20220214363A1, “NOVEL LIGAND ASSAYS” (InsituGen Limited, priority 2019, published 2022).

The test has as its target T1, AR (Homo sapiens, UniProt P10275).
T1 sequence (P10275 1-920): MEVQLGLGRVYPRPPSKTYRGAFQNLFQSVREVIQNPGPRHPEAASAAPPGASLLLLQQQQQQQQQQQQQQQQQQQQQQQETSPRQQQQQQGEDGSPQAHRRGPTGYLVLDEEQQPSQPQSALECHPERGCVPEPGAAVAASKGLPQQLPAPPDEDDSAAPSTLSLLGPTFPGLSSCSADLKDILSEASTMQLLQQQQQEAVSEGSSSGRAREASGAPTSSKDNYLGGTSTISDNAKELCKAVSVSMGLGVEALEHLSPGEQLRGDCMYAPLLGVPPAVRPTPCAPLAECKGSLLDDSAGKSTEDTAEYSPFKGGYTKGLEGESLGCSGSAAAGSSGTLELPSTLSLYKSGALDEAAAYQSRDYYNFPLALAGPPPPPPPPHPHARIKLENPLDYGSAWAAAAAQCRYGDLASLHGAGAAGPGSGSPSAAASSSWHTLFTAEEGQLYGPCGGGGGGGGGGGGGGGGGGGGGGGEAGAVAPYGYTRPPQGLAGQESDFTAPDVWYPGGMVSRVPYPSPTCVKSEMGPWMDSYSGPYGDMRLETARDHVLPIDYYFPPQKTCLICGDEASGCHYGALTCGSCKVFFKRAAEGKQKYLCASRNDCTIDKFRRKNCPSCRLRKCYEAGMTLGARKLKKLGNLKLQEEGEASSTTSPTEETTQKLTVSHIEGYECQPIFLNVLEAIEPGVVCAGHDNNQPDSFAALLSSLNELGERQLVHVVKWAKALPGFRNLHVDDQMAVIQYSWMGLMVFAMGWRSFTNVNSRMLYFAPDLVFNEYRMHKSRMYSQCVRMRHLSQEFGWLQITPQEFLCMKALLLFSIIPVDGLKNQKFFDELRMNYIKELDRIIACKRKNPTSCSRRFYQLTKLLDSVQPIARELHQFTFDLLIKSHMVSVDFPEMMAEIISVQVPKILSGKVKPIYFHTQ
The settings on record: gelding urine sample spiked with trenbolone before deconjugation and extraction; vs ethanol control set at 100%.

Text: Spiked trenbolone represents a gelding urine sample that had been spiked with trenbolone before the deconjugation and extraction steps. T7 activity measured for the ethanol control was arbitrarily set at 100%.
Racehorse urine samples were collected on race day and steroids deconjugated and extracted using routine processes. The extracted steroids were resuspended in ethanol and subjected to the assay.

For `C[C@]12C=CC3=C4CCC(=O)C=C4CCC3C1CC[C@@H]2O` (stereo partly shown) [trenbolone], the “suppression of T7-generated Mango II” value is “suppression of T7-generated Mango II”.
